# “Also recorded” adds a separate entry of the source.
# Tested on: proteases in pooled pig plasma
# Assay: Multiplex substrate profiling by mass spectrometry (MSP-MS) of pig plasma with the 228-member tetradecapeptide library
# Conditions: pooled pig plasma ~50-fold diluted to 1 mg/mL protein, DPBS 1 mM DTT, room temperature, 15 and 60 min, LC-MS/MS, triplicate
# Text: To quantify proteolytic activity in plasma samples obtained from healthy pigs, we used the MSP-MS assay, which is a global and unbiased substrate-based protease profiling approach. This assay uses a physicochemically diverse library of peptides as substrates for proteases present in a biological sample. Tandem mass spectrometry is used to quantify protease-derived peptide cleavage products. These substrates were designed to contain a unique dipeptide at each terminus (position 1–2 and 13–14) to profile exo-acting proteases and a central decapeptide sequence (position 3–12) consisting of all combinations of neighbor and near-neighbor amino acid pairs that are used to profile endoproteases [10].
# Equal volumes of plasma from six pigs were mixed and then diluted to a final concentration of 1 mg/mL protein in assay buffer and mixed with the synthetic peptides. This dilution of ~50-fold reduced the concentration of plasma proteins and peptides in the assay that could interfere with the quantification of the synthetic peptides. Cleavage of synthetic peptides by proteases in neat plasma was predicted to occur in minutes and therefore dilution of plasma decreases the concentration of all proteases so that activity could be monitored at two time intervals over the course of an hour-long assay. This allowed us to detect and quantify peptide cleavage products after 15 and 60 min incubations. […]
sequence,measurement,value
FRIHGFDEAHNAWM,cleavage site of the library peptide by pig plasma proteases,cleaved between His-Asn; also recorded: cleaved between Ala-Trp

# From publication PMC7571063, “High-Resolution Mass Spectrometry-Based Approaches for the Detection and Quantification of Peptidase Activity in Plasma” (Molecules, 2020)
